Source: US9296758B2, “2-quinolinyl-acetic acid derivatives as HIV antiviral compounds” (GILEAD SCIENCES, INC., priority 2010, dated 2016)
pEC50: −log10 of the molar value.

System: HIV-IIIb
Experiment: Test A: Antiviral Assays in MT4 Cells
Format: cell-based
Details: MT-4 cells infected with HIV-IIIb (0.004 m.o.i.), 5 days of incubation, CellTiter-Glo chemiluminescence readout
Procedure: Test A: Antiviral Assays in MT4 Cells For the antiviral assay utilizing MT-4 cells, 0.4 μL of 189X test concentration of 3-fold serially diluted compound in DMSO was added to 40 μL of cell growth medium (RPMI 1640, 10% FBS, 1% penicillin/Streptomycin, 1% L-Glutamine, 1% HEPES) in each well of 384-well assay plates (10 concentrations) in quadruplicate. 1 mL aliquots of 2×10e6 MT-4 cells are pre-infected for 1 and 3 hrs respectively, @ 37° C. with 25 μL (MT4) or of either cell growth medium (mock-infected) or a fresh 1:250 dilution of an HIV-IIIb concentrated ABI stock (0.004 m.o.i. for MT4 cells). Infected and uninfected cells are diluted in cell growth medium and 35 uL of 2000 (for MT4) cells is added to each well of the assay plates. Assay plates were then incubated in a 37° C. incubator. After 5 days of incubation, 25 μl of 2× concentrated CellTiter-Glo™ Reagent (catalog #G7573, Promega Biosciences, Inc., Madison, Wis.) was added to each well of the assay plate. Cell lysis was carried out by incubating at room temperature for 2-3 min and then chemiluminescence was read using the Envision reader (PerkinElmer).

[1] = Human immunodeficiency virus 1, IIIB, MT4, 120 h

| Compound | pEC50 [1] | pEC50 |
| --- | --- | --- |
| Cc1cc2c(ccc(=O)n2Cc2ccccc2)c(-c2ccc3c4c(ccnc24)CCO3)c1[C@H](OC(C)(C)C)C(=O)O (atropisomer, axis not shown) [Compound 68, (S)-2-((R)-1-benzyl-5-(2,3-dihydropyrano[4,3,2-de]quinolin-7-yl)-7-methyl-2-oxo-1,2-dihydroquinolin-6-yl)-2-tert-butoxyacetic acid] | 4.54 | – |
| Cc1ccc2c(-c3ccc(Cl)cc3Cl)c([C@H](OC(C)(C)C)C(=O)O)c(C)cc2n1 [Compound 104] | – | 6.14 |
| Cc1cc2nc(CO)ccc2c(-c2ccc3c4c(ccnc24)CCO3)c1[C@H](OC(C)(C)C)C(=O)O [Compound 21, (S)-2-tert-Butoxy-2-((R)-5-(2,3-dihydropyrano[4,3,2-de]quinolin-7-yl)-2-(hydroxymethyl)-7-methylquinolin-6-yl)acetic acid] | 6.64 | – |
| Cc1cc2nc(-c3cccc(Cl)c3)ccc2c(-c2ccc3c4c(ccnc24)CCO3)c1[C@H](OC(C)(C)C)C(=O)O (atropisomer, axis not shown) [Compound 55, (S)-2-tert-Butoxy-2-((R)-2-(3-chlorophenyl)-5-(2,3-dihydropyrano[4,3,2-de]quinolin-7-yl)-7-methylquinolin-6-yl)acetic acid] | 7.39 | – |
| Cc1cc2nc(N(C)CC(C)C)ccc2c(-c2ccc3c4c(ccnc24)CCO3)c1[C@H](OC(C)(C)C)C(=O)O [Compound 92, (S)-2-tert-butoxy-2-((R)-5-(2,3-dihydropyrano[4,3,2-de]quinolin-7-yl)-2-(isobutyl(methyl)amino)-7-methylquinolin-6-yl)acetic acid] | 6.52 | – |
| C=CCCc1ccc2c(-c3ccc4c5c(ccnc35)CCO4)c([C@H](OC(C)(C)C)C(=O)O)c(C)cc2n1 (atropisomer, axis not shown) [Compound 48, (S)-2-((R)-2-(but-3-enyl)-5-(2,3-dihydropyrano[4,3,2-de]quinolin-7-yl)-7-methylquinolin-6-yl)-2-tert-butoxyacetic acid] | 7.59 | – |
| Cc1cc2nc(-c3cn(C)cn3)ccc2c(-c2ccc(Cl)cc2)c1[C@H](OC(C)(C)C)C(=O)O [Compound 86, (S)-2-tert-butoxy-2-(5-(4-chlorophenyl)-7-methyl-2-(1-methyl-1H-imidazol-4-yl)quinolin-6-yl)acetic acid] | 7.11 | – |
| Cc1cc2nc(-c3cncn3C)ccc2c(-c2ccc3c4c(ccnc24)CCO3)c1[C@H](OC(C)(C)C)C(=O)O (atropisomer, axis not shown) [Compound 83, (S)-2-tert-Butoxy-2-((R)-5-(2,3-dihydropyrano[4,3,2-de]quinolin-7-yl)-7-methyl-2-(1-methyl-1H-imidazol-5-yl)quinolin-6-yl)acetic acid] | 7.38 | – |
| Cc1cc2nc(C(F)(F)F)ccc2c(-c2ccc(Cl)cc2)c1[C@H](OC(C)(C)C)C(=O)O [Compound 7J, (S)-2-tert-butoxy-2-(5-(4-chlorophenyl)-7-methyl-2-(trifluoromethyl)quinolin-6-yl)acetic acid] | 6.80 | – |
| CCC(C)c1ccc2c(-c3ccc4c5c(ccnc35)CCO4)c([C@H](OC(C)(C)C)C(=O)O)c(C)cc2n1 (stereo partly drawn) [Compound 49, (2S)-2-tert-Butoxy-2-((5R)-2-sec-butyl-5-(2,3-dihydropyrano[4,3,2-de]quinolin-7-yl)-7-methylquinolin-6-yl)acetic acid] | 7.57 | – |
| Cc1cc2nc(C(=O)N(C)c3ccccc3)ccc2c(-c2ccc(Cl)cc2)c1[C@H](OC(C)(C)C)C(=O)O [Compound 17, (S)-2-tert-butoxy-2-(5-(4-chlorophenyl)-7-methyl-2-(methyl(phenyl)carbamoyl)quinolin-6-yl)acetic acid] | 6.44 | – |
| Cc1cc2nc(-c3cncn3C)ccc2c(-c2ccc(Cl)cc2)c1[C@H](OC(C)(C)C)C(=O)O [Compound 82, (S)-2-tert-Butoxy-2-(5-(4-chlorophenyl)-7-methyl-2-(1-methyl-1H-imidazol-5-yl)quinolin-6-yl)acetic acid] | 6.77 | – |
| Cc1ccc2c(-c3ccc(Cl)cc3)c([C@H](OC(C)(C)C)C(=O)O)c(Cl)cc2n1 [Compound 1L, (S)-2-tert-butoxy-2-(7-chloro-5-(4-chlorophenyl)-2-methylquinolin-6-yl)acetic acid] | 6.77 | – |
| Cc1cc2nc(-c3cccnc3)ccc2c(-c2ccc(Cl)cc2)c1[C@H](OC(C)(C)C)C(=O)O [Compound 74, (S)-2-tert-butoxy-2-(5-(4-chlorophenyl)-7-methyl-2-(pyridin-3-yl)quinolin-6-yl)acetic acid] | 7.04 | – |
| COc1ccc2c(-c3ccc(Cl)cc3)c([C@H](OC(C)(C)C)C(=O)O)c(C)cc2n1 [Compound 66, (S)-2-tert-butoxy-2-(5-(4-chlorophenyl)-2-methoxy-7-methylquinolin-6-yl)acetic acid] | 6.53 | – |
| Cc1cc2nc(-c3cncnc3)ccc2c(-c2ccc(Cl)cc2)c1[C@H](OC(C)(C)C)C(=O)O [Compound 87, (S)-2-tert-Butoxy-2-(5-(4-chlorophenyl)-7-methyl-2-(pyrimidin-5-yl)quinolin-6-yl)acetic acid] | 6.76 | – |
| Cc1cc2c(ccc3nc(-c4ccccc4)cn32)c(-c2ccc3c4c(ccnc24)CCO3)c1[C@H](OC(C)(C)C)C(=O)O (atropisomer, axis not shown) [Compound 61, (S)-2-tert-Butoxy-2-((R)-6-(2,3-dihydropyrano[4,3,2-de]quinolin-7-yl)-8-methyl-2-phenylimidazo[1,2-a]quinolin-7-yl)acetic acid] | 6.92 | – |
| Cc1cc2nc(C3CCCC3)ccc2c(-c2ccc3c4c(ccnc24)CCO3)c1[C@H](OC(C)(C)C)C(=O)O (atropisomer, axis not shown) [Compound 51, (S)-2-tert-Butoxy-2-((R)-2-cyclopentyl-5-(2,3-dihydropyrano[4,3,2-de]quinolin-7-yl)-7-methylquinolin-6-yl)acetic acid] | 7.52 | – |
| Cc1cc2nc(N3CCCC3)ccc2c(-c2ccc3c4c(ccnc24)CCO3)c1[C@H](OC(C)(C)C)C(=O)O [Compound 94, (S)-2-tert-butoxy-2-((R)-5-(2,3-dihydropyrano[4,3,2-de]quinolin-7-yl)-7-methyl-2-(pyrrolidin-1-yl)quinolin-6-yl)acetic acid] | 6.83 | – |
| COC(=O)c1ccc2c(-c3ccc(Cl)cc3)c([C@H](OC(C)(C)C)C(=O)O)c(C)cc2n1 [Compound 12, (S)-2-tert-Butoxy-2-(5-(4-chlorophenyl)-2-(methoxycarbonyl)-7-methylquinolin-6-yl)acetic acid] | 6.68 | – |
| Cc1cc2nc(C#CC3CC3)ccc2c(-c2ccc(Cl)cc2)c1[C@H](OC(C)(C)C)C(=O)O [Compound 38, (S)-2-tert-butoxy-2-(5-(4-chlorophenyl)-2-(cyclopropylethynyl)-7-methylquinolin-6-yl)acetic acid] | 7.17 | – |
| Cc1cc2nc(-c3cn[nH]c3)ccc2c(-c2ccc(Cl)cc2)c1[C@H](OC(C)(C)C)C(=O)O [Compound 77, (S)-2-tert-butoxy-2-(5-(4-chlorophenyl)-7-methyl-2-(1H-pyrazol-4-yl)quinolin-6-yl)acetic acid] | 6.87 | – |
| Cc1ccc2c(-c3ccc(-c4ccccc4)cc3)c(C(OC(C)(C)C)C(=O)O)c(C)cc2n1 (centres unmarked) [Compound 19, 2-(5-(Biphenyl-4-yl)-2,7-dimethylquinolin-6-yl)-2-tert-butoxyacetic acid] | 4.28 | – |
| Cc1cc2nc(-c3ccncc3)ccc2c(-c2ccc3c4c(ccnc24)CCO3)c1[C@H](OC(C)(C)C)C(=O)O (atropisomer, axis not shown) [Compound 75, (S)-2-tert-Butoxy-2-((R)-5-(2,3-dihydropyrano[4,3,2-de]quinolin-7-yl)-7-methyl-2-(pyridin-4-yl)quinolin-6-yl)acetic acid] | 7.42 | – |
| Cc1cc2nc(-n3ccnc3)ccc2c(-c2ccc(Cl)cc2)c1[C@H](OC(C)(C)C)C(=O)O [Compound 91, (S)-2-tert-Butoxy-2-(5-(4-chlorophenyl)-2-(1H-imidazol-1-yl)-7-methylquinolin-6-yl)acetic acid] | 7.14 | – |
| Cc1cc2nc(-c3ccccn3)ccc2c(-c2ccc(Cl)cc2)c1[C@H](OC(C)(C)C)C(=O)O [Compound 79, (S)-2-tert-butoxy-2-(5-(4-chlorophenyl)-7-methyl-2-(pyridin-2-yl)quinolin-6-yl)acetic acid] | 7.07 | – |
| Cc1cc2nc(-c3cscn3)ccc2c(-c2ccc(Cl)cc2)c1[C@H](OC(C)(C)C)C(=O)O [Compound 76, (S)-2-tert-butoxy-2-(5-(4-chlorophenyl)-7-methyl-2-(thiazol-4-yl)quinolin-6-yl)acetic acid] | 6.57 | – |
| Cc1cc2nc(-n3ccnc3)ccc2c(-c2ccc3c4c(ccnc24)CCO3)c1[C@H](OC(C)(C)C)C(=O)O [Compound 98, (S)-2-tert-butoxy-2-((R)-5-(2,3-dihydropyrano[4,3,2-de]quinolin-7-yl)-2-(1H-imidazol-1-yl)-7-methylquinolin-6-yl)acetic acid] | 6.60 | – |
| Cc1cc2nc(CN(C)C)ccc2c(-c2ccc(Cl)cc2)c1[C@H](OC(C)(C)C)C(=O)O [Compound 9, (S)-2-tert-butoxy-2-(5-(4-chlorophenyl)-2-((dimethylamino)methyl)-7-methylquinolin-6-yl)acetic acid] | 6.76 | – |
